Source: patent publication US9481685B2, “Imaging neuroinflammation” (GE Healthcare Limited, priority 2008, dated 2016)
Like-named read-outs stand apart in the source and are kept apart here.

Assays:
PBR [1] = biological target: T1, PBR (Rattus norvegicus (Rat), UniProt P16257); test: Autoradiography using facial nerve axotomy (FNA) model; type: in vivo; settings: facial nucleus, 30 minutes after injection
Description: For in vivo studies, male Wistar rats (180-200 g) were used. Under Isoflurane anaesthesia, the hair from the right side of the auricular region was removed. An infraauricular incision was made and the main trunk of the facial nerve identified. The facial nerve was severed behind the ear at the exit from the stylomastoid foramen. The wound was sutured and animals left to recover. Seven days post-surgery animals were injected with ˜5-10 MBq in vivo imaging agent 1 via the lateral tail vein. Animals were killed 30 minutes later and brain stem removed and frozen in isopentane. Cryostat sections (12 μm) of brainstem containing both facial nuclei were mounted on glass slides and exposed to phosphor screen overnight.
Screens were then scanned on the Storm (GE Healthcare) phosphor-imager and the resultant scan was analysed and quantified using ImageQuant TL (GE Healthcare).

Wistar rat heart PBR = Wistar rat heart PBR (Rattus norvegicus (Rat), UniProt P16257); test: In vitro potency assay: competition for binding to PBR against 0.3 nM [3H]-PK-11195
Description: The reaction was carried out in 50 mM Tris-HCl, pH 7.4 10 mM MgCl2 for 15 minutes at 25° C.

PBR [2] = biological target: T1, PBR; test: In vivo biodistribution, olfactory bulb:striatum uptake; settings: 18F-labelled agents, adult male Wistar rats, lateral tail vein, 30 min post-injection
Description: In vivo imaging agents 1-7 as prepared in Examples 7, 8 and 9 above were tested in the in vivo biodistribution model and their biodistribution compared to that of the prior art compound [^18F]FE-PBR (prepared according to Example 14 of WO 2007/057705).
Adult male Wistar rats (200-300 g) were injected with 1-3 MBq of each in vivo imaging agent via the lateral tail vein. At 2 10,30 or 60 min (n=3) after injection, rats were euthanised and tissues or fluids were sampled for radioactive measurement by liquid scintillation counting.

[3] = non-radioactive analogues, Wistar rat heart PBR, vs 0.3 nM [3H]-PK-11195, 15 minutes at 25° C., read-out: Ki

Compound | Average intensity in the lesioned side (PBR [1]; lesioned side, seven days post-surgery) | Average intensity in the non-lesioned side (PBR [1]; non-lesioned side) | Ki (Wistar rat heart PBR; [3]) | OB:Striatum @ 30 min (PBR [2]) | Ki (Wistar rat heart PBR)
CCN(CC)C(=O)C1Sc2ccccc2-c2c1c1cc(OC)ccc1n2CCF (racemic) [Imaging Agent 1, (+-)-11-(2-fluoroethyl)-8-methoxy-6,11-dihydro-5-thia-11-aza-benzo[a]fluorene-6-carboxylic acid diethyl amide] | 7.75±0.95 | 3.73±0.36 | 0.37 nM | – | –
CCN(CC)C(=O)C1Sc2ccccc2-c2c1c1c(OC)cccc1n2CCF (stereo not shown) [compound 7] | – | – | 1.09 nM | 2.42 | –
(+-)-4-fluoro-11-(2-fluoroethyl)-6,11-dihydro-5-thia-11-aza-benzo[a]fluorene-6-carboxylic acid diethyl amide [Imaging Agent 4] | – | – | 0.93 nM | 2.00 | –
(+-)-11-(2-fluoroethyl)-10-methoxy-6,11-dihydro-5-thia-11-aza-benzo[a]fluorene-6-carboxylic acid diethyl amide [Imaging Agent 3] | – | – | 0.4 nM | 3.50 | –
CCOc1ccc2c(c1)c1c(n2CCF)-c2ccccc2SC1C(=O)N(CC)CC (stereo not shown) [compound 6] | – | – | 0.52 nM | 2.67 | –
CCN(CC)C(=O)C1Sc2ccccc2-c2c1c1ccccc1n2CC[18F] (stereo not shown) [[^18F]FE-PBR, reference compound] | – | – | – | 1.42 | 0.68 nM
